From patent US7601746B2 (Shionogi & Co., Ltd., priority 2003, dated 2009)

Target: T1, human TPO receptor (hTPOR) (Homo sapiens, UniProt P40238)
T1 construct: expressed in transfected cells; host or cells: BaF-B03 (murine IL-3 dependent cell line)
T1 sequence (P40238 26-635): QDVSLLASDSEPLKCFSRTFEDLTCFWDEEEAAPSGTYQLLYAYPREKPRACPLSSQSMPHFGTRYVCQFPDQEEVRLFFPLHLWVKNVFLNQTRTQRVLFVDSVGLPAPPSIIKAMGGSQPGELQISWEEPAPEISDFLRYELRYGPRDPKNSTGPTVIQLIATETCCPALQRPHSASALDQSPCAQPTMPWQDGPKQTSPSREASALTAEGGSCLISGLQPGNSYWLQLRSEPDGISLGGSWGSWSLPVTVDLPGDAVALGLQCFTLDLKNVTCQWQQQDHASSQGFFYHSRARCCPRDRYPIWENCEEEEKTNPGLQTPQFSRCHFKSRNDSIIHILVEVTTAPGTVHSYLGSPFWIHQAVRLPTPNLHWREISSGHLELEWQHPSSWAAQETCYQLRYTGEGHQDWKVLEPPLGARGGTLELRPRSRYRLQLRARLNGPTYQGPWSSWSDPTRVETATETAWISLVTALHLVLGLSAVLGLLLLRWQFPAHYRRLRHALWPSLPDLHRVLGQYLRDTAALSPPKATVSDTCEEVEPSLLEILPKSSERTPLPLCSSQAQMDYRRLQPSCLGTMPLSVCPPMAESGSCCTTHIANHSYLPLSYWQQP
Assay: Thrombopoietic activity: proliferation of TPO dependent BaF/hTPOR cells (WST-1, absorbance at 450 nm)
Assay type: cell-based
Settings: 20 h + 4 h WST-1, ED50 = half concentration of the concentration showing the maximum thrombopoietic activity
From the text: The TPO dependent BaF/hTPOR cell line which was established by introducing human TPO receptor (hTPOR) into BaF-B03 cells according to Collins et al (J. Cell. Physiol., 137:293-298 (1988)) was used to test the thrombopoietic activity of the present compound. The DNA sequences and encoded peptide sequences for human hTPOR have been described by Vigon et al (Proc. Natl. Acad. Sci. USA, 89:5640-5644 (1992)). TPO dose not have any ability to support proliferation of interlukin-3 dependent parental cell line BaF-B03. BAF/hTPOR cells were maintained in RPMI medium and WEHI-3B conditioned medium as a source of murine interleukin-3 (IL-3). These cells were washed and resuspended in RPMI medium without a source of murine IL-3 and seeded into each well of 96-well microtiter plates at a density of 5×10^4 cells per well in the absence or presence of various concentration of hTPO or the present compound. After incubation at 37° C. for 20 hours in the 5% CO2 incubator, 10% WST-1 reagent (Takara Biomedicals, Japan) was added to each wells and the cells were further incubated for 4 hours. The absorbance at 450 nm was measured. Tables 1 and 2 exemplify the ED50 for tested compounds of the present invention, wherein the ED50 is the half concentration of the concentration showing the maximum thrombopoietic activity.

Compound	EC50 (Table 1) [nM]	EC50 (Table 2) [nM]
CCCC(CCc1cccc2c1CCc1sc(NC(=O)c3cc(F)c(C=C(C)C(=O)O)c(F)c3)nc1-2)OC (stereo not drawn) [Compound A12, 3-{2,6-difluoro-4-[4,5-dihydro-6-(3-methyloxyhexyl)naphtho[1,2-d]thiazol-2-ylcabamoyl]phenyl}-2-methylacrylic acid]	0.8	–
CCCCCCCOc1cccc(-c2csc(NC(=O)c3cc(F)c(/C=C(\C)C(=O)O)c(F)c3)n2)c1OC [Compound B1998, (E)-3-{2,6-difluoro-4-[4-(3-heptyloxy-2-methyloxyphenyl)thiazol-2-ylcarbamoyl]phenyl}-2-methylacrylic acid]	8.35	–
CCCCOCc1cccc(-c2csc(NC(=O)c3cc(F)c(/C=C(\C)C(=O)O)c(F)c3)n2)c1OC [Compound B1997, (E)-3-{4-[4-(3-butyloxymethyl-2-methyloxyphenyl)thiazol-2-ylcarbamoyl]-2,6-difluorophenyl}-2-methylacrylic acid]	15.5	–
CO/C(=C\c1c(Cl)cc(C(=O)Nc2nc(-c3cccc(OCCC4CCCCC4)c3OC)cs2)cc1Cl)C(=O)O [Compound B1919]	–	27.9
CCCCCCCCOc1cccc(-c2csc(NC(=O)c3cc(Cl)c(/C=C(\C)C(=O)O)c(Cl)c3)n2)c1OC [Compound B2005, (E)-3-{2,6-dichloro-4-[4-(2-methyloxy-3-octyloxyphenyl)thiazol-2-ylcarbamoyl]phenyl}-2-methylacrylic acid]	10.3	–
CCCCCCc1cccc2c1OCc1sc(NC(=O)c3cc(F)c(/C=C(\C)C(=O)O)c(F)c3)nc1-2 [Compound A1314, (E)-3-[2,6-difluoro-4-(6-hexyl-4H-chromeno[4,3-d]thiazol-2-ylcabamoyl)phenyl]-2-methylacrylic acid]	12.5	–
CCCCCCOCCc1cccc(-c2csc(NC(=O)c3cc(Cl)c(/C=C(\OC)C(=O)O)c(Cl)c3)n2)c1OC [Compound B1929, (Z)-3-(2,6-dichloro-4-{4-[3-(2-hexyloxyethyl)-2-methyloxyphenyl]thiazol-2-ylcarbamoyl)phenyl)-2-methyloxyacrylic acid]	–	25.8
CCCCC(OCC)c1cccc(-c2csc(NC(=O)c3cc(Cl)c(C=C(C)C(=O)O)c(Cl)c3)n2)c1F (stereo not drawn) [Compound B71, 3-(2,6-dichloro-4-{4-[3-(1-ethyloxypentyl)-2-fluorophenyl]thiazol-2-ylcarbamoyl}phenyl)-2-methylacrylic acid]	1	–
CCCCCCOCCc1cccc(-c2csc(NC(=O)c3cc(Cl)c(/C=C(\C)C(=O)O)c(Cl)c3)n2)c1OC [Compound B1928, (E)-3-(2,6-dichloro-4-{4-[3-(2-hexyloxyethyl)-2-methyloxyphenyl]thiazol-2-ylcarbamoyl)phenyl)-2-methylacrylic acid]	12.6	–
CCCCCc1cccc2c1CCc1sc(NC(=O)c3cc(F)c(C=C(C)C(=O)O)c(F)c3)nc1-2 [Compound A2, 3-[2,6-difluoro-4-(4,5-dihydro-6-pentylnaphtho[1,2-d]thiazol-2-ylcabamoyl)phenyl]-2-methylacrylic acid]	4	–
CCOCCCc1cccc2c1CCc1sc(NC(=O)c3cc(Cl)c(C=C(C)C(=O)O)c(Cl)c3)nc1-2 [Compound A10, 3-{2,6-dichloro-4-[4,5-dihydro-6-(3-ethyloxypropyl)naphtho[1,2-d]thiazol-2-ylcabamoyl]phenyl}-2-methylacrylic acid]	1.2	–
COc1c(-c2csc(NC(=O)c3cc(Cl)c(/C=C(\C)C(=O)O)c(Cl)c3)n2)cccc1C(CC(C)(C)C)OC (stereo not drawn) [Compound B1054, (E)-3-(2,6-dichloro-4-{4-[2-methyloxy-3-(1-methyloxy-3,3-dimethylbutyl)phenyl]thiazol-2-ylcarbamoyl}phenyl)-2-methylacrylic acid]	19.9	–
CCOC(c1cccc(-c2csc(NC(=O)c3cc(Cl)c(C=C(C)C(=O)O)c(Cl)c3)n2)c1F)C(C)(C)C (stereo not drawn) [Compound B56, 3-(2,6-dichloro-4-{4-[3-(1-ethyloxy-2,2-dimethylpropyl)-2-fluorophenyl]thiazol-2-ylcarbamoyl}phenyl)-2-methylacrylic acid]	2.7	–
CCCOC(CC)c1cccc(-c2csc(NC(=O)c3cc(Cl)c(C=C(C)C(=O)O)c(Cl)c3)n2)c1F (stereo not drawn) [Compound B81, 3-(2,6-dichloro-4-{4-[2-fluoro-3-(1-n-propyloxypropyl)phenyl]thiazol-2-ylcarbamoyl}phenyl)-2-methylacrylic acid]	1.39	–
C/C(=C\c1c(F)cc(C(=O)Nc2nc3c(s2)COc2c(CCC(C)(C)C)cccc2-3)cc1F)C(=O)O [Compound A1315, (E)-3-{4-[6-(3,3-dimethylbutyl)-4H-chromeno[4,3-d]thiazol-2-ylcabamoyl]-2,6-difluorophenyl}-2-methylacrylic acid]	12.5	–
COc1c(OCCC2CCCCC2)cccc1-c1csc(NC(=O)c2cc(Cl)c(/C=C(\C)C(=O)O)c(Cl)c2)n1 [Compound B1918]	–	21

Second part, led by results:

EC50 (Table 1) [nM]	Compound	EC50 (Table 2) [nM]
0.39	CCCCCOC(CCCC)c1cccc(-c2csc(NC(=O)c3cc(F)c(C=C(C)C(=O)O)c(F)c3)n2)c1F (stereo not drawn) [Compound B26, 3-(2,6-difluoro-4-{4-[2-fluoro-3-(1-n-pentyloxypentyl)phenyl]thiazol-2-ylcarbamoyl}phenyl)-2-methylacrylic acid]	–
1.27	CC(=Cc1c(F)cc(C(=O)Nc2nc(-c3cccc(CCCOCCC4CCCC4)c3F)cs2)cc1F)C(=O)O [Compound B44, 3-[4-(4-{3-[3-(2-cyclopentylethyloxy)propyl]-2-fluorophenyl}thiazol-2-ylcarbamoyl}-2,6-difluorophenyl)-2-methylacrylic acid]	–
1.04	CCOCCCCOC(CC)c1cccc(-c2csc(NC(=O)c3cc(Cl)c(C=C(C)C(=O)O)c(Cl)c3)n2)c1F (stereo not drawn) [Compound B65, 3-[2,6-dichloro-4-(4-{3-[1-(4-ethyloxybutyloxy)propyl]-2-fluorophenyl]thiazol-2-ylcarbamoyl}phenyl)-2-methylacrylic acid]	–
0.67	CCOCCCCOC(c1cccc(-c2csc(NC(=O)c3cc(F)c(C=C(C)C(=O)O)c(F)c3)n2)c1F)C1CCCCC1 (stereo not drawn) [Compound B21, 3-[4-(4-{3-[1-cyclohexyl-1-(4-ethyloxybutyloxy)methyl]-2-fluorophenyl]thiazol-2-ylcarbamoyl}-2,6-difluorophenyl)-2-methylacrylic acid]	–
1.14	CCOCCCCOC(CC)c1cccc(-c2csc(NC(=O)c3cc(F)c(C=C(C)C(=O)O)c(F)c3)n2)c1F (stereo not drawn) [Compound B22, 3-[2,6-difluoro-4-(4-{3-[1-(4-ethyloxybutyloxy)propyl]-2-fluorophenyl}thiazol-2-ylcarbamoyl)phenyl]-2-methylacrylic acid]	–
0.34	CCCCOC(CCCC)c1cccc(-c2csc(NC(=O)c3cc(F)c(C=C(C)C(=O)O)c(F)c3)n2)c1F (stereo not drawn) [Compound B42, 3-(4-{4-[3-(1-n-butyloxypentyl)-2-fluorophenyl]thiazol-2-ylcarbamoyl}-2,6-difluorophenyl]-2-methylacrylic acid]	–
0.68	CCCCOCCCC(OCCCC)c1cccc(-c2csc(NC(=O)c3cc(F)c(C=C(C)C(=O)O)c(F)c3)n2)c1F (stereo not drawn) [Compound B51, 3-(4-{4-[3-(1,4-dibutyloxybutyl)-2-fluorophenyl]thiazol-2-ylcarbamoyl}-2,6-difluorophenyl)-2-methylacrylic acid]	–
2.2	CCCCCC(OC)c1cccc(-c2csc(NC(=O)c3cc(F)c(C=C(C)C(=O)O)c(F)c3)n2)c1F (stereo not drawn) [Compound B1, 3-(2,6-difluoro-4-{4-[2-fluoro-3-(1-methyloxyhexyl)phenyl]thiazol-2-ylcarbamoyl}phenyl)-2-methylacrylic acid]	–
